Measurements published in patent US11174252B2, “Heterocyclic compounds as kinase inhibitors” (priority 2018, dated 2021).
Where two headings read alike, the source gives them in different places.

Columns and labels:
CDK4 = CDK4 (Homo sapiens (Human), UniProt P11802); test: In vitro kinase inhibition, luminescence (ADP-Glo) with retinoblastoma substrate; assay type: biochemical
CDK6 = CDK6 (Homo sapiens (Human), UniProt Q00534); test: biochemical; assay type: biochemical
FMS kinase = FMS kinase (Homo sapiens (Human), UniProt P07333); test: LanthaScreen kinase assay (ATP, fluorescent-PolyGT substrate, TR-FRET); assay type: biochemical
MCF-7 = test: Cancer cell proliferation assay, single agent; assay type: cell-based; settings: Homo sapiens
PI3Kδ kinase = PI3Kδ kinase (Homo sapiens (Human), UniProt O00329); test: PI3Kδ kinase ADP-Glo assay (Reaction Biology Corporation); settings: read-out: PI3Kδ IC50
DU4475 = test: Cancer cell proliferation assay, single agent; assay type: cell-based; settings: Homo sapiens
[1] = MCF7, MCF-7 cells, treated for 24-168 hours, read-out: IC50 (nM) MCF-7
[2] = DU-4475, DU4475 cells, treated for 24-168 hours, read-out: IC50 (nM) DU4475
[3] = MCF7, read-out: IC50 (nM) MCF-7
[4] = DU-4475, read-out: IC50 (nM) DU4475

CDK4, sequence (P11802 whole entry): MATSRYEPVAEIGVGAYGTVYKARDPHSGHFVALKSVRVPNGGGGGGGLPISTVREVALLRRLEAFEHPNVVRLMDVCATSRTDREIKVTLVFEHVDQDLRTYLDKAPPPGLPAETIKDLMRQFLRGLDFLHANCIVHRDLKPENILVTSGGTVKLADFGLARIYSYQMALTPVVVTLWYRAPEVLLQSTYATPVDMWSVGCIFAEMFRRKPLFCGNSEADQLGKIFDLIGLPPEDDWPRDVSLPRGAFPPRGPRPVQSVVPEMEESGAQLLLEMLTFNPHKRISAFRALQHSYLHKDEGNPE
CDK4, sequence (P24385 whole entry partner): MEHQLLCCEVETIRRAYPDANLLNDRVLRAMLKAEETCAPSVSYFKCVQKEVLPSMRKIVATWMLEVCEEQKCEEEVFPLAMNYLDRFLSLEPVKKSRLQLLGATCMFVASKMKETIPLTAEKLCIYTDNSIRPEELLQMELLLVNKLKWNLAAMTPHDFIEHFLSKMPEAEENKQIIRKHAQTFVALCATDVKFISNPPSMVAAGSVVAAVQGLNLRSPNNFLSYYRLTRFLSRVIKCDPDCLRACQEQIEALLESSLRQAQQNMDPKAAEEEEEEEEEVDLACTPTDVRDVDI
FMS kinase, sequence (P07333 20-972): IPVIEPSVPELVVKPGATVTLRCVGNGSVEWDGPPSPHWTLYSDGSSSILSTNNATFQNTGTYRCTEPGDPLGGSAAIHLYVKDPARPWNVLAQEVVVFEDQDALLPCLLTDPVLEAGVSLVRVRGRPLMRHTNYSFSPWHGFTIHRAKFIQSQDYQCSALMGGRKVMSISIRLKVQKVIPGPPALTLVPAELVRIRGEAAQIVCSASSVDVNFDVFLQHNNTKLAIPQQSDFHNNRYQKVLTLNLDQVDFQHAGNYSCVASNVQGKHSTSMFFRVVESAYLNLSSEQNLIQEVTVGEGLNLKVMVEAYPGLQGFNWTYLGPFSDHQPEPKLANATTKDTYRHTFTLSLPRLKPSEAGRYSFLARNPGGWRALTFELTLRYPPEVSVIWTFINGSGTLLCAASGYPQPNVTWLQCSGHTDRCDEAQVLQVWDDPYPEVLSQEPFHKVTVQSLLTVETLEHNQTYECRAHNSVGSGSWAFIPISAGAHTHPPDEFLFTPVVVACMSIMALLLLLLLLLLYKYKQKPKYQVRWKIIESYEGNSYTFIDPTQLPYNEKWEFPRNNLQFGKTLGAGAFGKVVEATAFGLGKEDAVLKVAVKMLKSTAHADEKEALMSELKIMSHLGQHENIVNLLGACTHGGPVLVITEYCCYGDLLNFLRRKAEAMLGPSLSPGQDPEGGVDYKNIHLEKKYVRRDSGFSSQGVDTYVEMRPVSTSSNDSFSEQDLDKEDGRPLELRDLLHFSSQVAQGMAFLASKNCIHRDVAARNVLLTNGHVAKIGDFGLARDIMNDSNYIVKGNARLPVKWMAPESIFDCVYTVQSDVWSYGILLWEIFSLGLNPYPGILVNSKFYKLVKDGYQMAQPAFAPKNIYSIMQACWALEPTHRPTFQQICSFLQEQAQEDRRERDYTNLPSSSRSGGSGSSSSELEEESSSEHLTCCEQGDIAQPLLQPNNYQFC
PI3Kδ kinase, sequence (O00329 whole entry): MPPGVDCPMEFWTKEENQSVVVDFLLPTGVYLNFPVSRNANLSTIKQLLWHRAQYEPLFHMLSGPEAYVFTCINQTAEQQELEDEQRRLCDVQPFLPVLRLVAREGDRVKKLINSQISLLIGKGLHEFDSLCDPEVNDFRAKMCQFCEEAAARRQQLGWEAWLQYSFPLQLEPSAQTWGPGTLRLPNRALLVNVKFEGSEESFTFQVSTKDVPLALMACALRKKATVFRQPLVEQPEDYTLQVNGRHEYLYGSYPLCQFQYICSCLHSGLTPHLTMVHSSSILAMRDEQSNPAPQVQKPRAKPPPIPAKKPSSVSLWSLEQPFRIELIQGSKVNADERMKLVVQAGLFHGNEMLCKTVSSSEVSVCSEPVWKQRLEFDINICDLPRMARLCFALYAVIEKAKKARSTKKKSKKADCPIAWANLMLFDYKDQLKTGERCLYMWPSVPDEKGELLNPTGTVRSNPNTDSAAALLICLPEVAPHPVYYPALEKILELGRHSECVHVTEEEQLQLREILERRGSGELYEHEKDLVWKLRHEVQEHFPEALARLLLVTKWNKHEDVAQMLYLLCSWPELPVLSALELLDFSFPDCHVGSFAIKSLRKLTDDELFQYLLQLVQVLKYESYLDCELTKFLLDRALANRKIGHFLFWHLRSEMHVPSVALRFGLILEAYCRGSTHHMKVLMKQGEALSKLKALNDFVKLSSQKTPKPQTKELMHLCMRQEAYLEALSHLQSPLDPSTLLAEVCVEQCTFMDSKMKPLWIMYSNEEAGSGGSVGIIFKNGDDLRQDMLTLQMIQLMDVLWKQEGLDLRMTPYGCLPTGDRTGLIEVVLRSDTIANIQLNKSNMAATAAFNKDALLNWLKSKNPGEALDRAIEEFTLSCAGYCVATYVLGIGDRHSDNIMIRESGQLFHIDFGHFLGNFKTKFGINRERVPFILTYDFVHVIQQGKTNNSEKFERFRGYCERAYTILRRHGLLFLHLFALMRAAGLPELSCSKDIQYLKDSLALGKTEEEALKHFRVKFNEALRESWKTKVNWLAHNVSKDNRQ
PI3Kδ kinase, sequence (P27986 whole entry partner): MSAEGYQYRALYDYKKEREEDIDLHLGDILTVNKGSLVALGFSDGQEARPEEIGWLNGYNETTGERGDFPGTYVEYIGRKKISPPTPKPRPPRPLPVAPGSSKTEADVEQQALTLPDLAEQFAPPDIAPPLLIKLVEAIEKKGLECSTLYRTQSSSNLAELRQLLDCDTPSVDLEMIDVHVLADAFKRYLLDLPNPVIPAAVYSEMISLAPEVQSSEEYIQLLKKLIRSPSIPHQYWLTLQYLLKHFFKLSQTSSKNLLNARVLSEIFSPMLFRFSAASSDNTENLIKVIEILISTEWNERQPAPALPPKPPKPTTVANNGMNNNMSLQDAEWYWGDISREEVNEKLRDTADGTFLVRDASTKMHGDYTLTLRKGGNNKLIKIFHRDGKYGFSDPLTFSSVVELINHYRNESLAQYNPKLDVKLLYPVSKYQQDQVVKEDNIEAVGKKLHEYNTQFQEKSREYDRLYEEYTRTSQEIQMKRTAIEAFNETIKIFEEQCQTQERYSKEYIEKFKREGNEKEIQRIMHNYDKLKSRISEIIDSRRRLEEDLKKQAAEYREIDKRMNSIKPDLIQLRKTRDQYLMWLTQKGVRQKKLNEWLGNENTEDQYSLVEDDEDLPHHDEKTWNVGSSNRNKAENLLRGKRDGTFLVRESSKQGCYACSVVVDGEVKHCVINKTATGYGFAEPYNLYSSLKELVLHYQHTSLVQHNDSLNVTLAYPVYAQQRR

SMILES | IC50 (CDK4) [nM] | IC50 (CDK6) [nM] | IC50 (FMS kinase) [nM] | IC50 (MCF-7; [1]) [nM] | IC50 (PI3Kδ kinase) [nM] | IC50 (DU4475; [2]) [nM] | IC50 (MCF-7; [3]) [nM] | IC50 (DU4475; [4]) [nM]
CC(C)N1CCOc2c(F)cc(-c3nc(Nc4ccc(C5CCN(C(=O)CN(C)C)CC5)c(F)c4)ncc3F)cc21 [Compound 451, 2-(dimethylamino)-1-(4-(2-fluoro-4-((5-fluoro-4-(8-fluoro-4-isopropyl-3,4-dihydro-2H-benzo[b][1,4]oxazin-6-yl)pyrimidin-2-yl)amino)phenyl)piperidin-1-yl)ethan-1-one] | 28 | 27 | 28 | 30 | > 50000 |  |  | 
CC(C)N1CCOc2c(F)cc(-c3nc(Nc4ccc(CN5CCC(N(C)C)CC5)c(F)c4)ncc3F)cc21 [Compound 462, N-(4-((4-(dimethylamino)piperidin-1-yl)methyl)-3-fluorophenyl)-5-fluoro-4-(8-fluoro-4-isopropyl-3,4-dihydro-2H-benzo[b][1,4]oxazin-6-yl)pyrimidin-2-amine] | 5.5 | 9 | 25 | 40 |  | 65 |  | 
CC(C)N1CCOc2c(F)cc(-c3nc(Nc4ccc(N5CCN(C(=O)CN(C)C)CC5)c(F)c4)ncc3F)cc21 [Compound 449, 2-(dimethylamino)-1-(4-(2-fluoro-4-((5-fluoro-4-(8-fluoro-4-isopropyl-3,4-dihydro-2H-benzo[b][1,4]oxazin-6-yl)pyrimidin-2-yl)amino)phenyl)piperazin-1-yl)ethan-1-one] | 1.1 | 0.9 | 9.5 | 50 | 4480 |  |  | 
CC(C)N1CCOc2c(F)cc(-c3nc(Nc4ccc(N5CCN(C(=O)CN(C)C)CC5)cn4)ncc3F)cc21 [Compound 441, 2-(dimethylamino)-1-(4-(6-((5-fluoro-4-(8-fluoro-4-isopropyl-3,4-dihydro-2H-benzo[b][1,4]oxazin-6-yl)pyrimidin-2-yl)amino)pyridin-3-yl)piperazin-1-yl)ethan-1-one] | 1 | 0.6 | 526 | 95 | > 50000 |  |  | 
CC(C)N1CCOc2c(F)cc(-c3nc(Nc4ccc(N5CCN(C(=O)N(C)C)CC5)cn4)ncc3F)cc21 [Compound 453, 4-(6-((5-fluoro-4-(8-fluoro-4-isopropyl-3,4-dihydro-2H-benzo[b][1,4]oxazin-6-yl)pyrimidin-2-yl)amino)pyridin-3-yl)-N,N-dimethylpiperazine-1-carboxamide] | 12 | 30 | > 5000 | 695 | > 50000 |  |  | 
CC(C)N1CCOc2c(F)cc(-c3nc(Nc4ccc(N5CCSCC5)c(F)c4)ncc3F)cc21 [Compound 469, 5-fluoro-4-(8-fluoro-4-isopropyl-3,4-dihydro-2H-benzo[b][1,4]oxazin-6-yl)-N-(3-fluoro-4-thiomorpholinophenyl)pyrimidin-2-amine] |  |  | 46 | 495 | > 30000 |  |  | 
CC(C)N1CCOc2c(F)cc(-c3nc(Nc4ccc(C(=O)N5CCOCC5)c(F)c4)ncc3F)cc21 [Compound 457, (2-fluoro-4-((5-fluoro-4-(8-fluoro-4-isopropyl-3,4-dihydro-2H-benzo[b][1,4]oxazin-6-yl)pyrimidin-2-yl)amino)phenyl)(morpholino)methanone] | 3.5 | 7.5 | 68 | 55 |  | 30 |  | 
CC(C)N1CCOc2c(F)cc(-c3nc(Nc4cc5n(n4)CCN(C)C5)ncc3F)cc21 [Compound 444, N-(5-fluoro-4-(8-fluoro-4-isopropyl-3,4-dihydro-2H-benzo[b][1,4]oxazin-6-yl)pyrimidin-2-yl)-5-methyl-4,5,6,7-tetrahydropyrazolo[1,5-a]pyrazin-2-amine] | 1.6 | 3.4 | 67 | 1250 | > 50000 |  |  | 
CC(C)N1CCOc2c(F)cc(-c3nc(Nc4ccc(C(=O)N5CCC(N(C)C)CC5)c(F)c4)ncc3F)cc21 [Compound 463, (4-(dimethylamino)piperidin-1-yl)(2-fluoro-4-((5-fluoro-4-(8-fluoro-4-isopropyl-3,4-dihydro-2H-benzo[b][1,4]oxazin-6-yl)pyrimidin-2-yl)amino)phenyl)methanone] | 1.5 | 3.5 | 17 | 20 |  | 25 |  | 
CC(C)N1CCOc2c(F)cc(-c3nc(Nc4ccc(C5CCN(C(=O)CN(C)C)CC5)cn4)ncc3F)cc21 [Compound 450, 2-(dimethylamino)-1-(4-(6-((5-fluoro-4-(8-fluoro-4-isopropyl-3,4-dihydro-2H-benzo[b][1,4]oxazin-6-yl)pyrimidin-2-yl)amino)pyridin-3-yl)piperidin-1-yl)ethan-1-one] | 0.5 | 0.3 | 214 | 240 | > 50000 |  |  | 
CC(C)N1CCOc2c(F)cc(-c3nc(Nc4ccc5c(c4)CN(C(=O)CN(C)C)CC5)ncc3F)cc21 [Compound 455, 2-(dimethylamino)-1-(7-((5-fluoro-4-(8-fluoro-4-isopropyl-3,4-dihydro-2H-benzo[b][1,4]oxazin-6-yl)pyrimidin-2-yl)amino)-3,4-dihydroisoquinolin-2(1H)-yl)ethan-1-one] | 4.5 | 3 | 1.5 | < 4 | 13100 |  |  | 
CC(C)N1CCOc2c(F)cc(-c3nc(Nc4cnn(C5CCNCC5)c4)ncc3F)cc21 [Compound 448, 5-fluoro-4-(8-fluoro-4-isopropyl-3,4-dihydro-2H-benzo[b][1,4]oxazin-6-yl)-N-(1-(piperidin-4-yl)-1H-pyrazol-4-yl)pyrimidin-2-amine] | 3.2 |  | 8 | 50 | 8020 |  |  | 
CC(C)N1CCOc2c(F)cc(-c3nc(Nc4ccc(CN5CCN(CC6CC6)CC5)cn4)ncc3F)cc21 [Compound 516, N-(5-((4-(cyclopropylmethyl)piperazin-1-yl)methyl)pyridin-2-yl)-5-fluoro-4-(8-fluoro-4-isopropyl-3,4-dihydro-2H-benzo[b][1,4]oxazin-6-yl)pyrimidin-2-amine] | 1 | 4 |  | 155 |  | 995 |  | 
CCN1CCC(c2ccc(Nc3ncc(F)c(-c4cc(F)c5c(c4)N(C(C)C)CCO5)n3)nc2)CC1 [Compound 501, N-(5-(1-ethylpiperidin-4-yl)pyridin-2-yl)-5-fluoro-4-(8-fluoro-4-isopropyl-3,4-dihydro-2H-benzo[b][1,4]oxazin-6-yl)pyrimidin-2-amine] | 2 | 5 |  |  |  |  | 140 | 1020
CC(C)N1CCOc2c(F)cc(-c3nc(Nc4ccc(N5CCNCC5)nc4)ncc3F)cc21 [Compound 23, 5-fluoro-4-(8-fluoro-4-isopropyl-3,4-dihydro-2H-benzo[b][1,4]oxazin-6-yl)-N-(6-(piperazin-1-yl)pyridin-3-yl)pyrimidin-2-amine] |  |  | 25 |  | 4880 |  | < 10 | 
CC(C)N1CCOc2c(F)cc(-c3nc(Nc4ccc(C5CCN(C(=O)CO)CC5)cn4)ncc3F)cc21 [Compound 510, 1-(4-(6-((5-fluoro-4-(8-fluoro-4-isopropyl-3,4-dihydro-2H-benzo[b][1,4]oxazin-6-yl)pyrimidin-2-yl)amino)pyridin-3-yl)piperidin-1-yl)-2-hydroxyethan-1-one] | 3 | 4 |  |  |  |  | 293 | 1970
CC(C)N1CCOc2c(F)cc(-c3nc(Nc4ccc(C(=O)N5CCC(O)CC5)c(F)c4)ncc3F)cc21 [Compound 458, (2-fluoro-4-((5-fluoro-4-(8-fluoro-4-isopropyl-3,4-dihydro-2H-benzo[b][1,4]oxazin-6-yl)pyrimidin-2-yl)amino)phenyl)(4-hydroxypiperidin-1-yl)methanone] | 0.5 | 10 | 29 | 30 |  |  |  | 35
CC(C)N1CCOc2c(F)cc(-c3nc(Nc4ccc(S(=O)(=O)NC5CCNCC5)cc4)ncc3F)cc21 [Compound 791, 4-((5-fluoro-4-(8-fluoro-4-isopropyl-3,4-dihydro-2H-benzo[b][1,4]oxazin-6-yl)pyrimidin-2-yl)amino)-N-(piperidin-4-yl)benzenesulfonamide] | 9 | 41 |  | 90 |  | 205 |  | 
CCN1CCN(C(=O)c2ccc(Nc3ncc(F)c(-c4cc(F)c5c(c4)N(C(C)C)CCO5)n3)cc2F)CC1 [Compound 464, (4-ethylpiperazin-1-yl)(2-fluoro-4-((5-fluoro-4-(8-fluoro-4-isopropyl-3,4-dihydro-2H-benzo[b][1,4]oxazin-6-yl)pyrimidin-2-yl)amino)phenyl)methanone] | 8.5 | 22 | 42 | 85 |  | 80 |  | 
CCN1CCN(Cc2ccc(Nc3ncc(F)c(-c4cc(F)c5c(c4)N(C(C)C)CCO5)n3)cc2F)CC1 [Compound 461, N-(4-((4-ethylpiperazin-1-yl)methyl)-3-fluorophenyl)-5-fluoro-4-(8-fluoro-4-isopropyl-3,4-dihydro-2H-benzo[b][1,4]oxazin-6-yl)pyrimidin-2-amine] | 3.5 | 9 | 17 | 30 |  | 50 |  | 
